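Five compound concentrations were applied to cells in 96-well plates for 48 hours; endpoints were derived by simple linear interpolation of the resulting dose-response curve. GI50 = concentration required for 50% inhibition of growth. The concentration for full growth arrest is given as TGI.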
Columns and labels:
Experiment in all cases: NCI anticancer screen, dose series, 48 h
[1] = test system: 786-0 renal
[2] = test system: A498 renal
[3] = test system: A549 NSCLC
[4] = test system: ACHN renal
[5] = test system: BT-549 breast
[6] = test system: CAKI-1 renal
[7] = test system: CCRF-CEM leukemia
[8] = test system: COLO 205 colon
[9] = test system: DU-145 prostate
[10] = test system: EKVX NSCLC
[11] = test system: HCC-2998 colon
[12] = test system: HCT-116 colon
[13] = test system: HCT-15 colon
[14] = test system: HOP-62 NSCLC
[15] = test system: HS 578T breast
[16] = test system: HT29 colon
[17] = test system: IGROV1 ovarian
[18] = test system: KM12 colon
[19] = test system: LOX IMVI melanoma
[20] = test system: M14 melanoma
[21] = test system: MALME-3M melanoma
[22] = test system: MCF7 breast
[23] = test system: MDA-MB-231 breast
[24] = test system: MDA-MB-435
[25] = test system: MOLT-4 leukemia
[26] = test system: NCI-H226 lung
[27] = test system: NCI-H23 lung
[28] = test system: NCI-H460 lung
[29] = test system: NCI-H522 lung
[30] = test system: NCI/ADR-RES ovarian
[31] = test system: OVCAR-3 ovarian
[32] = test system: OVCAR-4 ovarian
[33] = test system: OVCAR-5 ovarian
[34] = test system: OVCAR-8 ovarian
[35] = test system: PC-3 prostate
[36] = test system: RPMI-8226 leukemia
[37] = test system: RXF 393 renal
[38] = test system: SF-268 CNS
[39] = test system: SF-295 CNS
[40] = test system: SF-539 CNS
[41] = test system: SK-MEL-2 melanoma
[42] = test system: SK-MEL-28 melanoma
[43] = test system: SK-MEL-5 melanoma
[44] = test system: SK-OV-3 ovarian
[45] = test system: SN12C renal
[46] = test system: SNB-19 CNS
[47] = test system: SNB-75 CNS
[48] = test system: SR leukemia
[49] = test system: SW-620 colon
[50] = test system: T-47D breast
[51] = test system: TK-10 renal
[52] = test system: U251 CNS
[53] = test system: UACC-257 melanoma
[54] = test system: UACC-62 melanoma
[55] = test system: UO-31 renal
[56] = test system: HOP-92 NSCLC
[57] = test system: K-562 leukemia

COc1cc(C(=O)Nc2cc(O)c(CC=C(C)C)c(O)c2)cc2c1O[C@]1(C)CC[C@@H](O)C(C)(C)[C@H]1C2
GI50 [1]: 0.0342 µM
TGI [1]: 6.85 µM
GI50 [2]: 0.147 µM
TGI [2]: 15.7 µM
GI50 [3]: 1.05 µM
TGI [3]: 24.6 µM
GI50 [4]: 1.78 µM
TGI [4]: 24.3 µM
GI50 [5]: 0.153 µM
TGI [5]: 12.8 µM
GI50 [6]: 0.491 µM
TGI [6]: 63.1 µM
GI50 [7]: 0.0962 µM
TGI [7]: > 100 µM
GI50 [8]: 1.37 µM
TGI [8]: 7.98 µM
GI50 [9]: 1.87 µM
TGI [9]: 21.7 µM
GI50 [10]: 2.71 µM
TGI [10]: 32 µM
GI50 [11]: 3.13 µM
TGI [11]: 13.8 µM
GI50 [12]: 0.219 µM
TGI [12]: 10.8 µM
GI50 [13]: 1.32 µM
TGI [13]: 14.4 µM
GI50 [14]: 0.46 µM
TGI [14]: 8.81 µM
GI50 [15]: 0.0471 µM
TGI [15]: 14 µM
GI50 [16]: 1.9 µM
TGI [16]: 12.3 µM
GI50 [17]: 7.06 µM
TGI [17]: 46.3 µM
GI50 [18]: 1.76 µM
TGI [18]: 12.9 µM
GI50 [19]: 0.281 µM
TGI [19]: 10.3 µM
GI50 [20]: 0.333 µM
TGI [20]: 2.35 µM
GI50 [21]: 2.85 µM
TGI [21]: 20 µM
GI50 [22]: 0.256 µM
TGI [22]: 15.4 µM
GI50 [23]: 1.16 µM
TGI [23]: 4.53 µM
GI50 [24]: 0.703 µM
TGI [24]: 41.4 µM
GI50 [25]: 0.0641 µM
TGI [25]: 1.38 µM
GI50 [26]: 3.04 µM
TGI [26]: 61.3 µM
GI50 [27]: 5.42 µM
TGI [27]: 35.9 µM
GI50 [28]: 0.547 µM
TGI [28]: 19.1 µM
GI50 [29]: 1.92 µM
TGI [29]: 14.6 µM
GI50 [30]: 29.8 µM
TGI [30]: > 100 µM
GI50 [31]: 3.83 µM
TGI [31]: 62 µM
GI50 [32]: 10.1 µM
TGI [32]: > 100 µM
GI50 [33]: 3.44 µM
TGI [33]: 37 µM
GI50 [34]: 0.623 µM
TGI [34]: 44.2 µM
GI50 [35]: 0.142 µM
TGI [35]: 37.5 µM
GI50 [36]: 0.0959 µM
TGI [36]: 0.816 µM
GI50 [37]: 0.0345 µM
TGI [37]: 2.89 µM
GI50 [38]: 1.79 µM
TGI [38]: 39.3 µM
GI50 [39]: 0.0397 µM
TGI [39]: 0.325 µM
GI50 [40]: 0.0391 µM
TGI [40]: 1.51 µM
GI50 [41]: 0.143 µM
TGI [41]: 8.21 µM
GI50 [42]: 2.03 µM
TGI [42]: 22.8 µM
GI50 [43]: 1.13 µM
TGI [43]: 3.51 µM
GI50 [44]: 0.729 µM
TGI [44]: 17.3 µM
GI50 [45]: 8.12 µM
TGI [45]: 60.2 µM
GI50 [46]: 4.64 µM
TGI [46]: 61.6 µM
GI50 [47]: 0.33 µM
TGI [47]: 17 µM
GI50 [48]: 0.0624 µM
TGI [48]: > 100 µM
GI50 [49]: 1.15 µM
TGI [49]: 11.9 µM
GI50 [50]: 1.12 µM
TGI [50]: 14.3 µM
GI50 [51]: 2.91 µM
TGI [51]: 42.4 µM
GI50 [52]: 0.0399 µM
TGI [52]: 17.4 µM
GI50 [53]: 0.0989 µM
TGI [53]: 13.1 µM
GI50 [54]: 0.187 µM
TGI [54]: 1.57 µM
GI50 [55]: 0.506 µM
TGI [55]: 4.13 µM

Cc1cnc2c(c1C)C(=O)c1ccccc1C2=O
TGI [1]: > 100 µM
TGI [2]: > 100 µM
TGI [3]: > 100 µM
TGI [4]: > 100 µM
TGI [5]: > 100 µM
TGI [6]: > 100 µM
TGI [7]: > 100 µM
TGI [8]: > 100 µM
TGI [9]: > 100 µM
TGI [10]: > 100 µM
TGI [11]: > 100 µM
TGI [12]: > 100 µM
TGI [13]: 88.1 µM
TGI [14]: > 100 µM
TGI [56]: > 100 µM
TGI [15]: > 100 µM
TGI [16]: > 100 µM
TGI [17]: > 100 µM
TGI [57]: > 100 µM
TGI [18]: > 100 µM
TGI [20]: > 100 µM
TGI [22]: > 100 µM
TGI [23]: 93.9 µM
TGI [24]: 39.1 µM
TGI [25]: > 100 µM
TGI [26]: > 100 µM
TGI [27]: > 100 µM
TGI [28]: 53.8 µM
TGI [29]: > 100 µM
TGI [30]: > 100 µM
TGI [31]: > 100 µM
TGI [32]: 59.3 µM
TGI [33]: > 100 µM
TGI [34]: > 100 µM
TGI [35]: > 100 µM
TGI [36]: > 100 µM
TGI [37]: > 100 µM
TGI [38]: > 100 µM
TGI [39]: > 100 µM
TGI [40]: > 100 µM
TGI [41]: > 100 µM
TGI [42]: > 100 µM
TGI [43]: 28.9 µM
TGI [44]: > 100 µM
TGI [45]: > 100 µM
TGI [46]: > 100 µM
TGI [47]: > 100 µM
TGI [48]: > 100 µM
TGI [49]: > 100 µM
TGI [50]: > 100 µM
TGI [51]: > 100 µM
TGI [52]: > 100 µM
TGI [53]: > 100 µM
TGI [55]: > 100 µM

Source: PubChem BioAssay (NCI)
